System: blood collected from volunteers
Assay: Measurement of whole blood clotting time (Sonoclot, ACT ONSET value)
Design: species or system human
Experimental: To a cuvette (NON-ACTIVATED CLOTTING TEST KIT), 18 μL of physiological saline was placed, and 14.8 μL of calcicol was added thereto, followed by further adding 342 μL of blood supplemented with citric acid. Thereafter, the measurement using Sonoclot blood coagulation/platelet function analyzer (IMI Co., Ltd.) was carried out to define the obtained ACT ONSET value as whole blood clotting time.

## CC1CNc2c(cccc2S(=O)(=O)N[C@@H](CCCNC(=N)N)C(=O)N2CC[C@@H](C)C[C@@H]2C(=O)O)C1 (mixture of isomers) [argatroban]
2 μM argatroban solution
  whole blood clotting time: 531 s
10 μM argatroban solution
  whole blood clotting time: 746 s
20 μM argatroban solution
  whole blood clotting time: 849 s

— patent publication US20140113091A1, “MEDICAL SUPPLY” (Toray Industries, Inc., priority 2011, published 2014)
